In PubChem BioAssay (NCI):
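Each compound was tested at five concentrations against cells in 96-well plates for 48 hours. TGI: total growth inhibition.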

Assays:
Test in all cases: NCI anticancer screen, dose series, 48 h
OVCAR-5 ovarian = system: OVCAR-5 ovarian
TK-10 renal = system: TK-10 renal
SK-MEL-5 melanoma = system: SK-MEL-5 melanoma
KM12 colon = system: KM12 colon
IGROV1 ovarian = system: IGROV1 ovarian
UACC-62 melanoma = system: UACC-62 melanoma
SNB-75 CNS = system: SNB-75 CNS
SK-MEL-28 melanoma = system: SK-MEL-28 melanoma
M14 melanoma = system: M14 melanoma
K-562 leukemia = system: K-562 leukemia
UO-31 renal = system: UO-31 renal
OVCAR-8 ovarian = system: OVCAR-8 ovarian
HT29 colon = system: HT29 colon
SN12C renal = system: SN12C renal
CCRF-CEM leukemia = system: CCRF-CEM leukemia
SNB-19 CNS = system: SNB-19 CNS
SR leukemia = system: SR leukemia
A549 NSCLC = system: A549 NSCLC
OVCAR-3 ovarian = system: OVCAR-3 ovarian
SK-OV-3 ovarian = system: SK-OV-3 ovarian

Measured: TGI

O=c1c2cccnc2oc2c(Cl)cc(-c3nn[nH]n3)cc12
> 100 µM: OVCAR-5 ovarian | TK-10 renal | SK-MEL-5 melanoma | KM12 colon | IGROV1 ovarian | UACC-62 melanoma | SNB-75 CNS | SK-MEL-28 melanoma | M14 melanoma | K-562 leukemia | UO-31 renal | OVCAR-8 ovarian | HT29 colon | SN12C renal | CCRF-CEM leukemia | SNB-19 CNS | SR leukemia | A549 NSCLC | OVCAR-3 ovarian | SK-OV-3 ovarian

O=C1C(Cl)N(c2ccc([N+](=O)[O-])cc2)C1c1c[nH]c2ccccc12 (stereo not given)
> 100 µM: OVCAR-5 ovarian | TK-10 renal | SK-MEL-5 melanoma | KM12 colon | IGROV1 ovarian | UACC-62 melanoma | SNB-75 CNS | SK-MEL-28 melanoma | M14 melanoma | K-562 leukemia | UO-31 renal | OVCAR-8 ovarian | HT29 colon | SN12C renal | CCRF-CEM leukemia | SNB-19 CNS | SR leukemia | A549 NSCLC | OVCAR-3 ovarian | SK-OV-3 ovarian
